Laboratory results as given in patent publication US20040039060A1, “Inhibitor for enzyme having two divalent metal ions as active centers” (priority 2000, published 2004).
Like-named read-outs stand apart in the source and are kept apart here.

Experiments:
[1] = UV spectrum measurement with stepwise addition of Mg2+ solution (chelate formation); assay type: physicochemical; conditions: compound 0.05 mmol/l, Mg2+ 0 to 3.6 mol/l, 240 nm to 500 nm, cell length 1 cm
Description: Compounds C-1, D-2, D-5 and D-6 were employed to determine UV spectra with treating dropwise with metal solutions.
The UV spectrum measurement was conducted with the cell length of 1 cm at a wavelength of 240 nm to 500 nm. Each test solution was obtained by preparing Solutions A^1, A2, B and C as shown below, adding an indicated volume of Solution A^1 or A2 to 1 ml of Solution B, making the total, volume 10 ml with Solution C. The concentrations of Compounds C-1, D-2, D-5 and D-6 in test solutions here were all adjusted at 0.05 mmol/l, and the concentrations of Mg^2+ were as indicated in Table 5.
Solution A1: MgCl2 4 mol/l, MOPS 50 mmol/l, NaOH 23.6 mmol/l, Solvent: Water
Solution A2: MgCl2 1 mol/l, MOPS 50 mmol/l, NaOH 23.6 mmol/l, Solvent: Water
Solution B: Compound 1 0.5 mmol/l, Solvent: DMSO
Solution C: NaCl 3 mol/l, MOPS 50 mmol/l, 23.6 mmol/l, Solvent: Water
For the purpose of indicating the change in the UV spectrum as a result of the increase in the metal ion concentration, one figure contained each UV spectrum curve at various metal ion concentrations.

[2] = UV spectrum measurement with monovalent ions Na+ and K+; assay type: physicochemical
HIV-1 integrase = HIV-1 integrase (Human immunodeficiency virus type 1 group M subtype B, UniProt P04585); assay: HIV-1 integrase inhibition assay (microtiter plate, immobilised substrate DNA, Dig-labelled target DNA, OD 405 nm); assay type: biochemical
Description: Substrate DNA and target DNA, which sequences were indicated below, were synthesized by Amersham Pharmacia Biotech and dissolved in KTE buffer (composition: 100 mM KCl, 1 mM EDTA, 10 mM Tris-HCl (pH 7.6)) at concentration of 2 pmol/μl and 5 pmol/μl, respectively. The DNA solutions were annealed with each complement by slowly cooling after heating.
Streptavidin, obtained from Vector Laboratories, was dissolved in 0.1 M carbonate buffer (composition: 90 mM Na2CO3, 10 mM NaHCO3) at concentration of 40 μg/ml. After coating each well of microtiter plates (obtained from NUNC) with 50 μl of the above solution at 4° C. overnight, each well was washed twice with PBS (composition: 13.7 mM NaCl, 0.27 mM KCl, 0.43 mM Na2HPO4, 0.14 mM KH2PO4) and blocked with 300 μl of 1% skim milk in PBS for 30 min. Additionally, each well was washed twice with PBS and added 50 μl of substrate DNA solution (2 pmol/μl). The microtiter plates were kept at room temperature for 30 min. Then, each well was washed twice with PBS and once with H2O.
Subsequently, in the each well prepared above were added 45 μl of the reaction buffer prepared from 12 μl of the buffer (composition: 150 mM MOPS (pH 7.2), 75 mM MnCl2, 50 mM 2-mercaptoethanol, 25% glycerol, 500 μg/ml bovine serum albumin-fraction V), 1 μl of target DNA (5 pmol/μl), and 32 μl of the distilled water. Additionally, 6 μl of either a test compound in DMSO or DMSO for positive control(PC) was mixed with the above reaction buffer, then 9 μl of an integrase solution (30 pmol) was added and mixed well. In the well of negative control (NC) was added 9 μl of the integrase dilution buffer (composition: 20 mM MOPS (pH7.2), 400 mM potassium glutamate, 1 mM EDTA, 0.1% NP-40, 20% glycerol, 1 mM DTT, 4M urea).
The microtiter plates were incubated at 30° C. for 1 hour. The reaction solution was removed and each well was washed twice with PBS. Subsequently, each well of the microtiter plates was filled with 100 μl of anti-digoxigenin antibody labeled with alkaline phosphatase (Sheep Fab fragment: obtained from Boehringer) and incubated at 30° C. for 1 hour. Then, each well was washed twice with 0.05% Tween20 in PBS and once with PBS. Next, 150 μl of the Alkaline phosphatase reaction buffer (composition: 10 mM p-Nitrophenylphosphate (obtained from Vector Laboratories), 5 mM MgCl2, 100 mM NaCl, 100 mM Tris-HCl (pH 9.5)) was added in each well. […] The optical density (OD) at 405 nm of each well was measured and the percent inhibition was determined by the following expression.
The percent inhibition (%)=100[1-{(C abs.−NC abs.)/(PC abs.−NC abs.)}]
When the percent inhibition (%) is X % at the concentration of x μg/ml and the percent inhibition (%) is Y % at the concentration of y μg/ml, one of which is more than 50% and the other is less than 50%, IC50 can be determined by the following expression.
IC50(μg/ml)=x-{(X-50)(x-y)/(X-Y)}
Compound No. in the Table 1 is the same as compound No. of the above example.

Compound	change in the UV spectrum curve as the metal ion concentration was increased [1]	change in the UV spectrum curve [2]	IC50 (HIV-1 integrase)	IC50 (HIV-1 integrase; concentration of the compound at percent inhibition 50%, MnCl2 buffer, 30° C., 1 hour)
O=C(O)/C(O)=C/c1cc(CCc2ccccc2)ncn1 [Compound C-1]	2-step change	almost no change	5.55 µM	
O=C(O)C(O)=Cc1ccnc(CCc2ccccc2)c1 [Compound D-5]	1-step change			>100 mg/L
OC(=Cc1cc(CCc2ccccc2)ncn1)c1ccccc1 [Compound D-6]	1-step change		> 331 µM	
